Data: publication PMC12515225, “Targeting neuroblastoma with hydroxamic acid based HDAC1 and HDAC2 inhibitors: Insights from in vitro and in vivo studies” (Investigational New Drugs, 2025)

Assays:
HDAC2 = HDAC2 (Homo sapiens, UniProt Q92769); test: fluorogenic HDAC activity assay with HDAC2 protein (BPS […]), Boc-Lys(Ac)-AMC substrate; type: biochemical
HDAC1 = HDAC1 (Homo sapiens, UniProt Q13547); test: fluorogenic HDAC activity assay with HDAC1 protein (BPS […]), Boc-Lys(Ac)-AMC substrate; type: biochemical
Chain of HDAC1 (Q13547 whole entry): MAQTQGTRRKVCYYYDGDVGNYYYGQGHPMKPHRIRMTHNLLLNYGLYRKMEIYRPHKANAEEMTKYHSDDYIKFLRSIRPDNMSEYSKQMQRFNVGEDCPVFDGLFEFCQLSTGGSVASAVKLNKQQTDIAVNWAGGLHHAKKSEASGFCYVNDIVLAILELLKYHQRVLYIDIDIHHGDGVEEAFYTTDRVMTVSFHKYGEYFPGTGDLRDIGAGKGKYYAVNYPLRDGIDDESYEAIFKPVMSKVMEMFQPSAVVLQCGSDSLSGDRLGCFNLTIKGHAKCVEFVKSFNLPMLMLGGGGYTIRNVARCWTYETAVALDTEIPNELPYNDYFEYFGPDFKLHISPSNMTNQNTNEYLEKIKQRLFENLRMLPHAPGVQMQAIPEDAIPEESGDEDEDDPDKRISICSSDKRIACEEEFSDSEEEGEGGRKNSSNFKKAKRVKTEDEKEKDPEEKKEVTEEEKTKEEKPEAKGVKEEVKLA

Chain of HDAC2 (Q92769 whole entry): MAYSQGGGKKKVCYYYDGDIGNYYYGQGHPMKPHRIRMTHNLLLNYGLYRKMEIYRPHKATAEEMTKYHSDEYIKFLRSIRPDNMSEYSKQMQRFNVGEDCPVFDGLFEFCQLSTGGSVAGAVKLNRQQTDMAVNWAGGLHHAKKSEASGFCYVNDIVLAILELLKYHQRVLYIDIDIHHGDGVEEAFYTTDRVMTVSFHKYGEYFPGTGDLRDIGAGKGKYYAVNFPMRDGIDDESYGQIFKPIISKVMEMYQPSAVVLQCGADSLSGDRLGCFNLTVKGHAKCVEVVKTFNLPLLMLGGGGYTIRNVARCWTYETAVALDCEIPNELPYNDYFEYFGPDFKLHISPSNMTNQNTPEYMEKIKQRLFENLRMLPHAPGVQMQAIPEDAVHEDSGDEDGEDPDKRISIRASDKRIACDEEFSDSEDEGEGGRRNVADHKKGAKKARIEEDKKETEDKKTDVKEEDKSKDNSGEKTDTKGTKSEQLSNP

| Structure (SMILES) | IC50 (HDAC2) | IC50 (HDAC1) |
| --- | --- | --- |
| O=C(NO)c1cccc(-c2ccccn2)n1 [3A, N-hydroxy[2,2'-bipyridine]-6-carboxamide] | 890 nM | – |
| O=C(CCCCCCC(=O)Nc1cccc(-c2ccccn2)n1)NO [3B, N^1-([2,2'-bipyridin]-6-yl)-N^8-hydroxyoctanediamide] | 1940 nM | 440 nM |
